The NIST ThermoML archive (doi:10.1021/acs.jced.9b00112)

Test: osmotic coefficient (dimensionless); mn = molality of the nth substance listed, in mol/kg
Settings: 101 kPa, Liquid

O=S(=O)([O-])[O-].[Ca+2] [calcium sulfate] + O
Settings	osmotic coefficient
273.12 K, m1 = 0.00937	0.732
273.12 K, m1 = 0.00952	0.731
273.12 K, m1 = 0.01046	0.723
273.12 K, m1 = 0.01092	0.719
273.12 K, m1 = 0.011	0.719
273.13 K, m1 = 0.00526	0.78
273.13 K, m1 = 0.0056	0.774
273.13 K, m1 = 0.00625	0.766
273.13 K, m1 = 0.0067	0.76
273.13 K, m1 = 0.00714	0.755
273.13 K, m1 = 0.00742	0.751
273.13 K, m1 = 0.00782	0.747
273.13 K, m1 = 0.00915	0.734
273.14 K, m1 = 0.00418	0.798
273.14 K, m1 = 0.00487	0.786
